Reference: patent US11084795B2, “CFTR regulators and methods of use thereof” (The Regents of the University of California, priority 2015, dated 2021)
“Also recorded” adds a separate entry of the source.

How the values were obtained:
FRT cells = assay: Alamar Blue cytotoxicity assay in FRT cells; type: cell-based, rat; conditions: up to 100 μM, 1 or 24 h
[1] = tested on: CFTR at the ocular surface; assay: Ocular surface potential difference (PD) in living mice; type: in vivo, mouse; conditions: wild-type mice
Protocol: Open-circuit transepithelial PD were measured continuously in anesthetized mice in response to serial perfusions of different solutions over the ocular surface, as described (21). Mice were anesthetized with Avertin (2,2,2-tribromoethanol, 125 mg/kg intraperitoneal, Sigma-Aldrich, St. Louis, Mo., USA), and core temperature was maintained at 37° C. using a heating pad. Eyes were oriented with the cornea and conjunctiva facing upward and exposed by retracting the eyelid with cross-action forceps. Solutions were isosmolar (320±10 mOsM; compositions provided in ref. 21) and contained 10μ[…] indomethacin to prevent CFTR activation by prostaglandins. The ocular surface was perfused at 6 mL/min through plastic tubing using a multireservoir gravity pinch-valve system (ALA Scientific, Westbury, N.Y., USA) and variable-flow peristaltic pump (medium flow model; Fisher Scientific, Fair Lawn, N.J., USA). A probe catheter was fixed 1 mm above the cornea using a micropositioner and a suction cannula was positioned 3 mm from the orbit. The measuring electrode was in contact to the perfusion catheter and connected to a high-impedance voltmeter (IsoMilivolt Meter; WPI). The reference electrode was grounded via a winged 21-gauge needle filled with isosmolar saline, and inserted subcutaneously in the abdomen. Measuring and reference electrodes consisted of Ag/AgCl with 3 M KCl agar bridges.
An open-circuit potential difference (PD) method developed in our lab was used to evaluate compound activity at the ocular surface in vivo, as depicted in FIG. 3A (21). Cl^− channel function was quantified by measuring PD during continuous perfusion of the ocular surface with a series of solutions that imposed a transepithelial Cl^− gradient and contained various channel agonists and/or inhibitors. The ocular surface was first perfused with isosmolar saline to record the baseline PD. Amiloride was then added to the perfusate, followed by exchange to a low Cl^− solution in which Cl^− with an impermeant anion, gluconate. These maneuvers allow for direct visualization of CFTR activation in response to addition of candidate CFTR activators.
Ocular surface potential difference measurements. Open-circuit transepithelial PD were measured continuously in anesthetized mice in response to serial perfusions of different solutions over the ocular surface, as described (21). Mice were anesthetized with Avertin (2,2,2-tribromoethanol, 125 mg/kg intraperitoneal, Sigma-Aldrich, St. Louis, Mo., USA), and core temperature was maintained at 37° C. using a heating pad. Eyes were oriented with the cornea and conjunctiva facing upward and exposed by retracting the eyelid with cross-action forceps. […]

tear fluid secretion = type: in vivo, mouse
[2] = Compound accumulation in systemic tissues after 14 days topical dosing; type: in vivo, mouse
[3] = Ocular toxicity after chronic topical dosing (slit-lamp, lissamine green staining); type: in vivo; conditions: chronically treated mice
Protocol: (§1) To assess corneal epithelial disruption, 5 μL of lissamine green (LG) dye (1%) was applied to the ocular surface of isofluorane-anesthetized mice. Photographs of the eye were taken using a Nikon Digital camera adapted to an Olympus Zoom Stereo Microscope (Olympus, Center Valley, Pa., USA). Each corneal quadrant was scored on a 3-point scale by one blinded, trained observer, with the extent of staining in each quadrant classified as: 0, no staining; 1, sporadic (involving <25% of the total surface) staining; grade 2, diffuse punctate staining (25-75%); and grade 3, coalesced punctate staining (>75%). The total grade is reported as the sum of scores from all four quadrants, ranging from 0 to 12.
as §1, with “Lissamine green staining. To” for “To”, “(≥75%).” for “(>75%).”

LGE BALB/c mice = assay: Lacrimal gland excision (LGE) mouse model of aqueous-deficient dry eye; type: in vivo
Protocol: as §1
A lacrimal gland excision (LGE) model of aqueous-deficient dry eye was adapted from a reported method (30). The extraorbital lacrimal gland was exposed on each side of wild-type female BALB/c mice (7-8 weeks of age) by 3-mm linear skin incisions. Lacrimal ducts were cauterized and the entire gland was removed bilaterally, avoiding facial vessels and nerves. Incisions were each closed with a single interrupted 6-0 silk suture. Orbital lacrimal tissue remained functional. Eyes with reduced corneal sensation (<5% of mice studied), as identified from neurotrophic corneal ulcers within 1 day of LGE, were excluded. Mice were randomized to receive either treatment (in both eyes) with CFTRact-K089 (0.1 nmol) or vehicle. Mice were treated three times daily (8 AM, 2 PM and 8 PM) for 2 weeks starting on Day 1 after LGE. Tear secretion and LG staining were performed immediately prior to, and one hour after the initial dose on day 4, 10 and 14 after LGE.
Lissamine green staining. […] Each corneal quadrant was scored on a 3-point scale by one blinded, trained observer, with the extent of staining in each quadrant classified as: 0, no staining; 1, sporadic (involving <25% of the total surface) staining; grade 2, diffuse punctate staining (25-75%); and grade 3, coalesced punctate staining (≥75%). […]

[4] = Tear film pharmacokinetics (LC/MS of tear washes)
human wildtype CFTR = human wildtype CFTR (Homo sapiens, UniProt P13569); assay: Short-circuit current (Isc) in FRT cells expressing human wild-type CFTR
Chain of human wildtype CFTR (P13569 whole entry): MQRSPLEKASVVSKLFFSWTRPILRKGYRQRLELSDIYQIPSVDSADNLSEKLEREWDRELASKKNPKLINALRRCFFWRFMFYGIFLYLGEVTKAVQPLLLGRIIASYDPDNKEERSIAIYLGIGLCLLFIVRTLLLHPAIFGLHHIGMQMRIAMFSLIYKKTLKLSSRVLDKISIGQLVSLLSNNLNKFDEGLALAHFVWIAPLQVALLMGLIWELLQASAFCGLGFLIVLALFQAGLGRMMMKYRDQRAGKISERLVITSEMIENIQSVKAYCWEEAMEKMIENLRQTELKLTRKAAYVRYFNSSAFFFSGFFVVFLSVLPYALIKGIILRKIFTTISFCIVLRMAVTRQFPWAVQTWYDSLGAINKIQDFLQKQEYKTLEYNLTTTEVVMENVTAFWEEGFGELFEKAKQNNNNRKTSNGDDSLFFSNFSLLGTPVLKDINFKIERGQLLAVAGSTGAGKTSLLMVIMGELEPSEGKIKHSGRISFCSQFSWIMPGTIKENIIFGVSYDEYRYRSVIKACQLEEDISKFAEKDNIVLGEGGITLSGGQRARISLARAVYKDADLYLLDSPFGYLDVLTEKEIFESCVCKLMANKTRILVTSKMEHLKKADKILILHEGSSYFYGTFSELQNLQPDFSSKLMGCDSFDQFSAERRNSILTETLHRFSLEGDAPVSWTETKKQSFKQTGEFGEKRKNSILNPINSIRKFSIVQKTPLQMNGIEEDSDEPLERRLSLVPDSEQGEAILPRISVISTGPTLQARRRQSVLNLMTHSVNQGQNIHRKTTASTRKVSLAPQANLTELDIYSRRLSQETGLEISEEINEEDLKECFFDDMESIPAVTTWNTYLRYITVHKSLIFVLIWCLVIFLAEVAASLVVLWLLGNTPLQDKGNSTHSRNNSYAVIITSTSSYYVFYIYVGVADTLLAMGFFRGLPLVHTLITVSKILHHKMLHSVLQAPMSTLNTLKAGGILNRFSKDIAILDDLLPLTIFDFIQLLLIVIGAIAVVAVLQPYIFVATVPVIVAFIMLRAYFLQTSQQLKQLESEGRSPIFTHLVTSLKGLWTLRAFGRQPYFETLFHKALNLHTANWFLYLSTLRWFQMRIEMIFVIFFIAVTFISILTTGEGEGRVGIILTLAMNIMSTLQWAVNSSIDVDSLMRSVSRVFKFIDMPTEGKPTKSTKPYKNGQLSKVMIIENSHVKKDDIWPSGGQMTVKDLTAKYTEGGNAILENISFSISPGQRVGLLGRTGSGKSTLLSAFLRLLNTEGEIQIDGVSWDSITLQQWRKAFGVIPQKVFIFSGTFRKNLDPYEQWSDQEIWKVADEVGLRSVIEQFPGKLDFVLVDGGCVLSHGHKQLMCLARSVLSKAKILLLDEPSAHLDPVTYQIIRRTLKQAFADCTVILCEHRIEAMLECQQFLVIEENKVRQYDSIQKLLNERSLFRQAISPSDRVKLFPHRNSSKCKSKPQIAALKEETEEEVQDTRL

## CCN(CC)c1nc(Nc2ccccc2)nc(OC(C(F)(F)F)C(F)(F)F)n1 [CFTRact-K089]
FRT cells
  in vitro cytotoxicity: no appreciable in vitro cytotoxicity
[1]
  hyperpolarization in ocular surface potential difference: ~8.5 mV
[1]; 1-10 μM
  change in ocular surface PD: large hyperpolarizations
Tear fluid secretion; CF mice
  tear fluid secretion in CF mice: no effect in CF mice
Tear fluid secretion; wild-type mice, B074 100 μM, J027 and K089 50 μM, VX-770 10 μM, cholera toxin 0.1 μg/mL, forskolin 20 μM, IBMX 250 μM
  tear fluid secretion after single topical dose: doubled basal tear secretion for four hours; also recorded: increased tear fluid secretion by approximately two-fold for at least four hours
[2]; topical
  systemic absorption after topical delivery: without detectable systemic absorption
[2]; two weeks of three times per day topical dosing
  amount in mouse blood, brain, liver and kidney (limit of detection): < 10 fmol
[3]
  LG staining of cornea and conjunctiva: no corneal or conjunctival epithelial disruption
[3]; topical three times daily, two weeks
  ocular toxicity (slit-lamp evaluation): no signs of ocular toxicity
LGE BALB/c mice; 0.1 nmol three times daily
  corneal / ocular surface epithelial disruption after LGE: fully prevented the corneal epithelial disruption; also recorded: prevented ocular surface epithelial disruption at all time points
LGE BALB/c mice; 0.1 nmol topically three times daily
  tear volume after LGE: restored tear secretion to basal levels; also recorded: maintained basal tear volume
LGE BALB/c mice; 12-point scale, by Day 14, 0.1 nmol three times daily
  LG score change: −0.6±0.6
[4]; 0.1 nmol (2 μL, 50 μM) instilled
  amount recovered from tear washes at six hours: 0.011 ± 0.004 pmol
[4]; 0.1 nmol single dose
  duration of predicted therapeutic tear fluid levels: therapeutic levels for at least six hours
Human wildtype CFTR; 100% = 20 μM forskolin
  CFTR activation (% Vmax): ~50 % Vmax
Human wildtype CFTR; forskolin produced little or no further increase in current
  extent of CFTR activation (Isc): fully activated CFTR
Human wildtype CFTR; read-out: EC50 for CFTR activation, FRT cells, wild-type CFTR, short-circuit current
  EC50: ~250 nM
